This experiment deals with TRPV4 (Homo sapiens, UniProt Q9HBA0). The experiment in a line: fura […] Ca2+ imaging dose response in human primary monocyte-derived macrophages (endogenous TRPV4); response reduced by TRPV4 siRNA knockdown; EC50 […] (GM-CSF) and […] (M-CSF). It counts as cell-based.

Broadly, the EC50 is the concentration giving half of the maximal effect. Lower therefore signals a more potent agent.

Sequence of TRPV4 (Q9HBA0 whole entry): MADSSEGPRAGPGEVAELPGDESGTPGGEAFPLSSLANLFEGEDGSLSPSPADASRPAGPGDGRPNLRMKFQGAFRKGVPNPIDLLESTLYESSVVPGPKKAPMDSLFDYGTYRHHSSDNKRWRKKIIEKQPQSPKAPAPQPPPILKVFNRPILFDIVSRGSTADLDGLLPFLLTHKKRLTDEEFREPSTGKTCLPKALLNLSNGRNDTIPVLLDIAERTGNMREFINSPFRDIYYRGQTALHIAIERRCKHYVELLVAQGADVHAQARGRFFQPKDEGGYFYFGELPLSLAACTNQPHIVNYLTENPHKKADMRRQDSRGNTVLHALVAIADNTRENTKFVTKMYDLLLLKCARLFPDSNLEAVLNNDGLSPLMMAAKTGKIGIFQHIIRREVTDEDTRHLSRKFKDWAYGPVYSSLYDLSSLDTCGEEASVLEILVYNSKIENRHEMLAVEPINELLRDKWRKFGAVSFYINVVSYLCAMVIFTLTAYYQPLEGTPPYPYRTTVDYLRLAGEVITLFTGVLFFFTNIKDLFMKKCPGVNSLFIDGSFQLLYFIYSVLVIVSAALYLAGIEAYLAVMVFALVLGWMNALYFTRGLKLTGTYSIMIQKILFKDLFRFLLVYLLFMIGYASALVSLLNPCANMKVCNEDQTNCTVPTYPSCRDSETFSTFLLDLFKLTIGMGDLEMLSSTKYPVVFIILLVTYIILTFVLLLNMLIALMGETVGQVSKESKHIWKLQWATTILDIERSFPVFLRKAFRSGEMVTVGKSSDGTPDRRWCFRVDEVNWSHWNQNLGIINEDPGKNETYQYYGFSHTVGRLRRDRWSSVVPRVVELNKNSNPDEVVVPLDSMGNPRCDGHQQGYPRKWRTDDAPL

As to `CC(C)C[C@H](NC(=O)c1cc2ccccc2s1)C(=O)N1CCN(C(=O)[C@H](CO)NS(=O)(=O)c2ccc(Cl)cc2Cl)CC1` [GSK1016790A], the concentration for a half-maximal effect (EC50) amounted to 0.58 µM.
